Positions count from the first letter of the chain named.
How the values were obtained:
Test in all cases: Relative rates of hydrolysis of poly-, oligosaccharides and aryl-glycosides
Type in all cases: biochemical
HvExoI W286F mutant = target: T1, HvExoI W286F mutant (Hordeum vulgare, UniProt Q9XEI3, W311F); settings: substance is the substrate, nd = activity not detected
T1 sequence (Q9XEI3 26-630 W311F): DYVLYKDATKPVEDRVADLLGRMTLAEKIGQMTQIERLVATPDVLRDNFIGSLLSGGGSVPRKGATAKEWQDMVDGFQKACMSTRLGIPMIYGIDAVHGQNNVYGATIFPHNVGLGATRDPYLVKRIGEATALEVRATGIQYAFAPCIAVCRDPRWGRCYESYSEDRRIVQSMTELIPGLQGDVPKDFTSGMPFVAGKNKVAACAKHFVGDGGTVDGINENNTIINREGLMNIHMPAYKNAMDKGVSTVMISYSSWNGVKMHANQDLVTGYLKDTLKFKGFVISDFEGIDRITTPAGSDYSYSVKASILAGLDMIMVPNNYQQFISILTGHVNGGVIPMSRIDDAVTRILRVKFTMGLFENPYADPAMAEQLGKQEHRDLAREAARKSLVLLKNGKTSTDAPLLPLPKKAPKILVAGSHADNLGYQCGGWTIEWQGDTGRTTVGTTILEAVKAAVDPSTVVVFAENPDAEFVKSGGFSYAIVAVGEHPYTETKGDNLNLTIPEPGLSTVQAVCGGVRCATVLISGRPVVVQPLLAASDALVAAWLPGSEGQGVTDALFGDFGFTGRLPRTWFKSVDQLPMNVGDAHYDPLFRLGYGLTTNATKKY
Experimental: (§1) Dependency of activities of WT and mutant HvExoI on pH (McIlvaine buffers in the pH range of 3.5–8.5 at 30 °C) and temperature (100 mM sodium acetate buffer, pH 5.25, temperature range 0–80 °C, 15 min incubations) were determined using 0.2% (w/v) 4NP-Glc[21],[59]. Relative rates of hydrolysis of β-linked poly-, oligosaccharides, and aryl-glucosides were determined using near-homogenous HvExoI at 50 pmoles. […] Kinetic parameters were calculated from the analyses of Michaelis-Menten plots with Grafit 7.0.3[62] and processed by a proportional weighted fit, using nonlinear regression. The relative rates of hydrolysis, kinetic, and inhibition data were rounded to one or two decimal points (Supplementary Tables 2–4).

[1] = target: T2, HvExoI W286F/W434A mutant (Hordeum vulgare, UniProt Q9XEI3, W311F/W459A); settings: substance is the substrate, nd = activity not detected
T2 sequence (Q9XEI3 26-630 W311F/W459A): T1 sequence (Q9XEI3 26-630 W311F) with W434A
Experimental: as §1

HvExoI W286Y mutant = target: T3, HvExoI W286Y mutant (Hordeum vulgare, UniProt Q9XEI3, W311Y); settings: substance is the substrate, nd = activity not detected
T3 sequence (Q9XEI3 26-630 W311Y): T1 sequence (Q9XEI3 26-630 W311F) with F286Y
Experimental: as §1

HvExoI W434Y mutant = target: T4, HvExoI W434Y mutant (Hordeum vulgare, UniProt Q9XEI3, W459Y); settings: substance is the substrate, nd = activity not detected
T4 sequence (Q9XEI3 26-630 W459Y): T1 sequence (Q9XEI3 26-630 W311F) with F286W, W434Y
Experimental: as §1

WT HvExoI = WT HvExoI (Hordeum vulgare, UniProt Q9XEI3); settings: substance is the substrate, HvExoI at 50 pmoles, nd = activity not detected
Experimental: as §1

Chain of WT HvExoI (Q9XEI3 entry or part of it): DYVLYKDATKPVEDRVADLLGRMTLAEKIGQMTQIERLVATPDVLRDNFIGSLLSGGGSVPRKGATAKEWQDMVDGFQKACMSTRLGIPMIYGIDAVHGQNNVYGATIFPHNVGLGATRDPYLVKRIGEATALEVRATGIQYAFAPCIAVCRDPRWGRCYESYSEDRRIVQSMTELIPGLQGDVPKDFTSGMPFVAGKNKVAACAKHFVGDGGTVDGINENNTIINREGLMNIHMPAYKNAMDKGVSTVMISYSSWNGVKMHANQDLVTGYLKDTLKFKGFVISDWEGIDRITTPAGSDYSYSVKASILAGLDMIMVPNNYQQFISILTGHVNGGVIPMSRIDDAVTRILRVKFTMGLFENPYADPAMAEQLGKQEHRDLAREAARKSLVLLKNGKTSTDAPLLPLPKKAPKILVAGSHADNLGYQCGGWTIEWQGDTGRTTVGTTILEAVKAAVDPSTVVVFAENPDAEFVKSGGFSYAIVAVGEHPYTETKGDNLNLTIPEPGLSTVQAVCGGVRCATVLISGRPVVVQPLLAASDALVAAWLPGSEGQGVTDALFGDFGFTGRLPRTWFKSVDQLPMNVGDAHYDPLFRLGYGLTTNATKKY

Molecule: OC[C@H]1O[C@@H](O[C@@H]2[C@@H](O)[C@H](O[C@@H]3[C@@H](O)[C@H](O[C@@H]4[C@@H](O)[C@H](O[C@@H]5[C@@H](O)[C@H](O[C@H]6[C@H](O)[C@@H](CO)OC(O)[C@@H]6O)O[C@H](CO)[C@H]5O)O[C@H](CO)[C@H]4O)O[C@H](CO)[C@H]3O)O[C@H](CO)[C@H]2O)[C@H](O)[C@@H](O)[C@@H]1O (stereo partly drawn) [Laminarihexaose]
- Activity (relative rate of hydrolysis) (HvExoI W286F mutant): 1.1 ± 0.03 μmole/min per mg protein
- Activity (relative rate of hydrolysis) [1]: 0.1 ± 0.004 μmole/min per mg protein
- Activity (relative rate of hydrolysis) (HvExoI W286Y mutant): 15.8 ± 0.1 μmole/min per mg protein
- Activity (relative rate of hydrolysis) (HvExoI W434Y mutant): 1.4 ± 0.1 μmole/min per mg protein
- Activity (relative rate of hydrolysis) (WT HvExoI): 12.2 ± 0.1 μmole/min per mg protein

Molecule: OC[C@H]1O[C@@H](O[C@H]2[C@H](O)[C@@H](O)[C@H](O[C@H]3[C@H](O)[C@@H](O)[C@H](O[C@H]4[C@H](O)[C@@H](O)C(O)O[C@@H]4CO)O[C@@H]3CO)O[C@@H]2CO)[C@H](O)[C@@H](O)[C@@H]1O (stereo partly drawn) [Cellotetraose]
- Activity (relative rate of hydrolysis) (HvExoI W286F mutant): 0.1 ± 0.01 μmole/min per mg protein
- Activity (relative rate of hydrolysis) [1]: 0.1 ± 0.01 μmole/min per mg protein
- Activity (relative rate of hydrolysis) (HvExoI W286Y mutant): 6.3 ± 1.1 μmole/min per mg protein
- Activity (relative rate of hydrolysis) (HvExoI W434Y mutant): 0.1 ± 0.01 μmole/min per mg protein
- Activity (relative rate of hydrolysis) (WT HvExoI): 8.5 ± 0.7 μmole/min per mg protein

Molecule: O=[N+]([O-])c1ccc(O[C@@H]2O[C@H](CO)[C@@H](O)[C@H](O)[C@H]2O)cc1 [4NP-Glc, 4-nitrophenyl β-D-glucopyranoside]
- Activity (relative rate of hydrolysis) (HvExoI W286F mutant): 0.9 ± 0.01 μmole/min per mg protein
- Activity (relative rate of hydrolysis) [1]: 1.8 ± 0.03 μmole/min per mg protein
- Activity (relative rate of hydrolysis) (HvExoI W286Y mutant): 19.6 ± 0.01 μmole/min per mg protein
- Activity (relative rate of hydrolysis) (HvExoI W434Y mutant): 1.2 ± 0.1 μmole/min per mg protein
- Activity (relative rate of hydrolysis) (WT HvExoI): 12.4 ± 0.8 μmole/min per mg protein

Molecule: Cellobiose
- Activity (relative rate of hydrolysis) (HvExoI W286F mutant): 0.1 ± 0.01 μmole/min per mg protein
- Activity (relative rate of hydrolysis) [1]: 0.01 ± 0.001 μmole/min per mg protein
- Activity (relative rate of hydrolysis) (HvExoI W286Y mutant): 3.2 ± 0.1 μmole/min per mg protein
- Activity (relative rate of hydrolysis) (HvExoI W434Y mutant): 0.1 ± 0.001 μmole/min per mg protein
- Activity (relative rate of hydrolysis) (WT HvExoI): 4.6 ± 0.2 μmole/min per mg protein

Molecule: laminarin
- Activity (relative rate of hydrolysis) (HvExoI W286F mutant): 1.1 ± 0.1 μmole/min per mg protein
- Activity (relative rate of hydrolysis) [1]: 0.1 ± 0.003 μmole/min per mg protein
- Activity (relative rate of hydrolysis) (HvExoI W286Y mutant): 14.2 ± 1.3 μmole/min per mg protein
- Activity (relative rate of hydrolysis) (HvExoI W434Y mutant): 0.7 ± 0.03 μmole/min per mg protein
- Activity (relative rate of hydrolysis) (WT HvExoI): 54.4 ± 0.5 μmole/min per mg protein

Molecule: OC[C@H]1O[C@@H](O[C@H]2C(O)O[C@H](CO)[C@@H](O)[C@@H]2O)[C@H](O)[C@@H](O)[C@@H]1O (stereo partly drawn) [Sophorose]
- Activity (relative rate of hydrolysis) (HvExoI W286F mutant): 0.6 ± 0.01 μmole/min per mg protein
- Activity (relative rate of hydrolysis) [1]: 0.02 ± 0.001 μmole/min per mg protein
- Activity (relative rate of hydrolysis) (HvExoI W286Y mutant): 12.5 ± 0.2 μmole/min per mg protein
- Activity (relative rate of hydrolysis) (HvExoI W434Y mutant): 0.8 ± 0.1 μmole/min per mg protein
- Activity (relative rate of hydrolysis) (WT HvExoI): 6.0 ± 0.1 μmole/min per mg protein

— PMC9508125, “The evolutionary advantage of an aromatic clamp in plant family 3 glycoside exo-hydrolases” (Nature Communications, 2022)
